IC50 and Flu intensity data for 22 molecules are collected here from ChEMBL document CHEMBL5543083, “3,5-Disubstituted-thiazolidine-2,4-dione hybrids as antidiabetic agents: Design, synthesis, in-vitro and In vivo evaluation” (Eur J Med Chem, 2024).

In brackets after ≈: the same amount, converted by molar mass.

For one test, the target named is Alpha-glucosidase (Saccharomyces cerevisiae S288c, UniProt P53341+P38158+P07265). The test is described as follows: Inhibition of yeast Alpha glucosidase 4-nitrophenyl-alpha-D-glucopyranoside incubated for 15 to 20 mins by Bio-rad microplate reader analysis. Format: protein assay.
The target of a further test is T1, Alpha-amylase (Sus scrofa domesticus, UniProt Q7M328).
T1 sequence (Q7M328 whole entry): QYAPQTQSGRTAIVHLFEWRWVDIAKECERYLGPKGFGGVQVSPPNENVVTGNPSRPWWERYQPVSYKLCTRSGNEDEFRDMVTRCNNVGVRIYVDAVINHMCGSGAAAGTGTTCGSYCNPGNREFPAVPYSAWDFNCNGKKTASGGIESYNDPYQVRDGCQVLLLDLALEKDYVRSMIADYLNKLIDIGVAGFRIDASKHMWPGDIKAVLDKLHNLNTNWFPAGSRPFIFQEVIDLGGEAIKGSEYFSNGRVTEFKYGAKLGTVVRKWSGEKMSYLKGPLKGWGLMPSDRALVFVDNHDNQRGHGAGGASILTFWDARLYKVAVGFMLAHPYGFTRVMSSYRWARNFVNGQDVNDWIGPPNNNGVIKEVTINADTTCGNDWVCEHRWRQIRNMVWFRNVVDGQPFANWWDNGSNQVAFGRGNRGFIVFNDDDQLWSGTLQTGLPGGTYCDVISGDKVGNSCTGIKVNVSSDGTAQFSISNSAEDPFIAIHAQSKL
The experiment in a line: Inhibition of porcine pancreatic Alpha-amylase using starch as substrate preincubated for 10 mins followed by substrate addition and measured after 15 mins by Bio-rad microplate reader analysis.

A short description of test [1]: Antioxidant activity assessed as DPPH radical scavenging activity measured for 30 mins by spectrophotometric analysis. It is filed as functional.
In test [2] the test system is PANC-1. The test is described as follows: Cytotoxicity against human PANC-1 cells assessed as inhibition of cell growth. It is filed as functional, cell-based.
In test [3] the test system is PANC-1. The test is described as follows: Induction of ROS production in high glucose-induced human PANC-1 cells assessed as maximum fluorescence intensity at 10 uM incubated for 30 mins DCFDA-staining based flow cytometry analysis (reference value: 15.09). Format: functional. As to conditions: 0.5 h; call rule not given here. For orientation: Flow cytometry measures light scatter and fluorescence of single cells or particles in a stream.

Test [4] can be described thus: Inhibition of Alpha glucosidase (unknown origin). On the set-up: species or system Homo sapiens.
The target of another test is T2, Alpha amylase (Homo sapiens, UniProt P0DUB6).
T2 sequence (P0DUB6 whole entry): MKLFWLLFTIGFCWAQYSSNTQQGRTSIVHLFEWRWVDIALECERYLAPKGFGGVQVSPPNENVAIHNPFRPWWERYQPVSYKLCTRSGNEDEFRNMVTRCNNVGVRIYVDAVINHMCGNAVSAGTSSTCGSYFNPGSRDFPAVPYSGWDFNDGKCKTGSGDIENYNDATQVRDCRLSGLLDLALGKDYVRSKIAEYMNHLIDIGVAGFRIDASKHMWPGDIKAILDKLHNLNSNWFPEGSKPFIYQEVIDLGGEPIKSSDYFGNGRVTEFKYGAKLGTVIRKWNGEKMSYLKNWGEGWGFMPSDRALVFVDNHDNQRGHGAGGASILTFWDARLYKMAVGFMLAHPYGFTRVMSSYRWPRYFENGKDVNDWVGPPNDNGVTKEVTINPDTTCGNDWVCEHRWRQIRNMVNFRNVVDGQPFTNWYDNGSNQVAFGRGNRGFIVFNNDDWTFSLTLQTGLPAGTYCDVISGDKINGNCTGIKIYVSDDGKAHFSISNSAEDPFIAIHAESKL
The experiment in a line: Inhibition of Alpha-amylase (unknown origin). Format: protein assay.

Setting [5] is: Homo sapiens, PANC-1, read-out: IC50.

One may read the IC50 as the concentration at which inhibition is half-maximal. Take `COc1ccc(/C=C2\SC(=O)N(Cc3cccc([N+](=O)[O-])c3)C2=O)cc1`: the IC50 against Alpha-glucosidase turned out to be 57.1 µM; at Alpha-amylase (read-out: IC50) it was 118 µM; in test [1] (read-out: IC50) it was 325 µM; in the test on PANC-1 [2] (setting [5]), 104 µM. In addition, in the test on PANC-1 [3], the Flu intensity was 84568.

`COc1ccc(/C=C2\SC(=O)N(Cc3cccc([N+](=O)[O-])c3)C2=O)c(OC)c1`: the 50% inhibitory concentration (IC50) stood at 65.52 µM against Alpha-glucosidase, 30.2 µM on Alpha-amylase (read-out: IC50), 32.1 µM in test [1] (read-out: IC50) and 166 µM in the test with PANC-1 [2] (setting [5]). For the same molecule, the Flu intensity in the test with PANC-1 [3] came to 37797.

As to `O=C1O[C@H]([C@@H](O)CO)C(O)=C1O` [ASCORBIC ACID], the results for the IC50 result (against Alpha-amylase; in test [1] (read-out: IC50)) were “Not Active” and 25.1 µM, respectively.

Consider `COc1ccc(/C=C2\SC(=O)N(Cc3cccc([N+](=O)[O-])c3)C2=O)cc1O`, for which the IC50 at Alpha-glucosidase was 32.94 µM; at Alpha-amylase (read-out: IC50), 28 µM; in test [1] (read-out: IC50), 70.9 µM; in the test on PANC-1 [2] (setting [5]), 215 µM. Also, in the test with PANC-1 [3], the Flu intensity is reported as 72737.

For the molecule `COc1cc(/C=C2\SC(=O)N(Cc3cccc([N+](=O)[O-])c3)C2=O)cc(OC)c1OC`, the IC50 was determined as 39.68 µM on Alpha-glucosidase, 39.3 µM on Alpha-amylase (read-out: IC50), 68 µM in test [1] (read-out: IC50) and 195 µM in the test with PANC-1 [2] (setting [5]).

Consider `COc1ccc(OC)c(/C=C2\SC(=O)N(Cc3cccc([N+](=O)[O-])c3)C2=O)c1`, for which the IC50 at Alpha-glucosidase worked out at 201 µM; on Alpha-amylase (read-out: IC50) it was 48.1 µM; in test [1] (read-out: IC50), 41.8 µM; with PANC-1 [2] (setting [5]), 62.6 µM. In addition, the Flu intensity with PANC-1 [3] is 58455.

With `O=C1S/C(=C\c2c(Cl)cccc2Cl)C(=O)N1Cc1cccc([N+](=O)[O-])c1`, the IC50 against Alpha-glucosidase amounted to 37.94 µM; at Alpha-amylase (read-out: IC50), 25.1 µM; in test [1] (read-out: IC50) it was 31.1 µM; in the test on PANC-1 [2] (setting [5]), 123 µM. Moreover, in the test on PANC-1 [3], the Flu intensity is 25204.

Consider `O=C1S/C(=C\c2ccc(-c3ccccc3)cc2)C(=O)N1Cc1cccc([N+](=O)[O-])c1`, for which the IC50 against Alpha-glucosidase is 15.37 µM; at Alpha-amylase (read-out: IC50) it was 82.2 µM; in test [1] (read-out: IC50), 32.6 µM; with PANC-1 [2] (setting [5]) it was 126 µM. In addition, the Flu intensity in the test on PANC-1 [3] stood at 23092.

In turn, `O=C1S/C(=C\c2ccc3c(c2)OCO3)C(=O)N1Cc1cn(-c2ccccc2Cl)nn1` came in with an IC50 in test [4] of 0.1 µg/mL (≈ 0.227 µM).

As to `COc1cc(OC)c(/C=C2\SC(=O)N(Cc3cccc([N+](=O)[O-])c3)C2=O)c(OC)c1`, the 50% inhibitory concentration (IC50) on Alpha-glucosidase came to 11.37 µM; at Alpha-amylase (read-out: IC50) it was 44.6 µM; in test [1] (read-out: IC50) it was 28.4 µM; in the test with PANC-1 [2] (setting [5]), 178 µM. Besides, in the test on PANC-1 [3], the Flu intensity was determined as 22596.

As to `COc1cc(/C=C2\SC(=O)N(Cc3cccc([N+](=O)[O-])c3)C2=O)ccc1O`, the 50% inhibitory concentration (IC50) was 19.73 µM at Alpha-glucosidase, 40.5 µM at Alpha-amylase (read-out: IC50), 38.1 µM in test [1] (read-out: IC50) and 190 µM in the test on PANC-1 [2] (setting [5]). The Flu intensity with PANC-1 [3] was found to be 66221.

As to `O=C1S/C(=C\c2ccc(Cl)cc2)C(=O)N1Cc1cccc([N+](=O)[O-])c1`, the IC50 stood at 22.61 µM against Alpha-glucosidase, 44.7 µM on Alpha-amylase (read-out: IC50), 32.2 µM in test [1] (read-out: IC50) and 94.9 µM in the test on PANC-1 [2] (setting [5]).

As for `COc1cccc(/C=C2\SC(=O)N(Cc3cccc([N+](=O)[O-])c3)C2=O)c1OC`, the IC50 was 153.1 µM on Alpha-glucosidase, 79.1 µM at Alpha-amylase (read-out: IC50), 13.6 µM in test [1] (read-out: IC50) and 179 µM in the test on PANC-1 [2] (setting [5]). Moreover, the Flu intensity with PANC-1 [3] came to 2271.

For the molecule `O=C1S/C(=C\c2cccc(Cl)c2Cl)C(=O)N1Cc1cccc([N+](=O)[O-])c1`, the 50% inhibitory concentration (IC50) on Alpha-glucosidase is 54 µM; at Alpha-amylase (read-out: IC50), 30.4 µM; in test [1] (read-out: IC50), 44.6 µM; with PANC-1 [2] (setting [5]), 179 µM. In addition, the Flu intensity in the test with PANC-1 [3] was determined as 65017.

As for `C=CCN1C(=O)S/C(=C\c2ccc(Cl)cc2Cl)C1=O`, the IC50 in test [4] stood at 18.19 µg/mL (≈ 57.9 µM); against Alpha amylase it was 43.85 µg/mL (≈ 140 µM).

On Alpha amylase, `N#Cc1ccccc1-c1ccc(N2C(=O)S/C(=C\c3ccccc3Oc3ccccc3)C2=O)cc1` returned an IC50 of 0.13 µg/mL (≈ 0.274 µM).

On to `COc1cc(OC)c(OC)cc1/C=C1\SC(=O)N(Cc2cccc([N+](=O)[O-])c2)C1=O`, for which the IC50 against Alpha-glucosidase turned out to be 54.01 µM; on Alpha-amylase (read-out: IC50), 30.8 µM; in test [1] (read-out: IC50) it was 30.6 µM; in the test with PANC-1 [2] (setting [5]) it was 203 µM. In addition, the Flu intensity with PANC-1 [3] amounted to 25238.

Take `CN(C)c1ccc(/C=C2\SC(=O)N(Cc3cccc([N+](=O)[O-])c3)C2=O)cc1`: the concentration for half-maximal inhibition (IC50) against Alpha-glucosidase was 16.9 µM; at Alpha-amylase (read-out: IC50) it was 81.1 µM; in test [1] (read-out: IC50), 211 µM; with PANC-1 [2] (setting [5]), 194 µM. Moreover, the Flu intensity in the test on PANC-1 [3] amounted to 76992.

Take `O=C1S/C(=C\c2c[nH]c3ccccc23)C(=O)N1Cc1ccccc1`: the half-maximal inhibitory concentration (IC50) stood at 25.76 µM against Alpha-glucosidase, 82.2 µM on Alpha-amylase (read-out: IC50), 30.2 µM in test [1] (read-out: IC50) and 191 µM in the test with PANC-1 [2] (setting [5]). Further, in the test on PANC-1 [3], the Flu intensity amounted to 22679.

`O=C(O)CN1C(=O)S/C(=C\c2cn(-c3ccccc3)nc2-c2ccc([N+](=O)[O-])cc2)C1=O`: the IC50 against Alpha amylase was determined as 4.08 µg/mL (≈ 9.06 µM).

Take `C[C@H]1O[C@H](O[C@H]2[C@H](O)[C@@H](O)[C@@H](O[C@H]3[C@H](O)[C@@H](O)C(O)O[C@@H]3CO)O[C@@H]2CO)[C@H](O)[C@@H](O)[C@@H]1N[C@H]1C=C(CO)[C@@H](O)[C@H](O)[C@H]1O` (stereo partly drawn) [ACARBOSE]: the IC50 result (in test [1]; with PANC-1 [2] (panc-1)) was “Not Active” each time. The Flu intensity in the test with PANC-1 [3] was determined as 1455.

Take `O=C1S/C(=C\c2ccc(O)cc2)C(=O)N1Cc1cccc([N+](=O)[O-])c1`: the IC50 on Alpha-glucosidase was determined as 29.28 µM; at Alpha-amylase (read-out: IC50), 42.9 µM; in test [1] (read-out: IC50) it was 34.9 µM; in the test with PANC-1 [2] (setting [5]) it was 32 µM. For the same molecule, in the test on PANC-1 [3], the Flu intensity was 35829.
